Patent US11484558B2, “Epizootic hemorrhagic disease virus—tel aviv university (EHDV-TAU)—oncolytic virus for treating cancer” (Ramot at Tel-Aviv University Ltd., priority 2017, dated 2022)

Experiments:
LNCaP-JAK1 cells = assay: Immunoblot of NS3 in infected LNCaP-JAK1 cells; conditions: for effect of treatment on NS3 expression in EHDV-TAU-LNCaP-infected cells: LNCaP-JAK1, Baricitinib 0.5 μM, IFNα 200 U/ml, IFNγ 25 ng/ml, prior to and during infection
LNCaP cells = assay: Trypan blue exclusion assay of infected LNCaP cells; assay type: cell-based, human; conditions: for effect of inhibitor on EHDV-TAU-LNCaP-induced cell death: Q-VD-OPH 20 μM, Necrostatin-1 75 μM, 45 hours
Protocol: LNCaP cells were infected (+) or not (−) with EHDV-TAU-LNCaP (0.05 PFU/cell, for 45 hours) and treated (+) or not (−) with Q-VD-OPH (20 μM, for 45 hours during infection, or 20 hours during STS treatment), Necrostatin-1 (75 μM, for 45 hours) or staurosporine (STS, 1 μM, for 20 hours; serves as positive control of apoptosis induction). Graph depicts mean±SE (n=3) of the percentage of cell death under the indicated conditions. *p<0.05; **p<0.005.
LNCaP cells were infected or not with EHDV-TAU-LNCaP (0.05 PFU/cell, for 45 hours) and treated, or not, with IFNα or the indicated EpMs. Graph depicts mean±SE (n=5) of percentage of cell death under the indicated conditions; *p<0.05; ***p<0.0005.
Trypan blue exclusion assay—2×10^5 LNCaP cells/well in a 12-well plate were infected, or not, under the indicated experimental conditions. For each well, detached and attached cells were collected together and mixed with 0.5% trypan blue at a 1:1 ratio. Cells were classified by trypan blue exclusion by light microscopy. Trypan blue (0.5%) was from Beit Haemek Biological Industries, Israel (cat. #03-102-1B).

With “IL-6: Human IL-6 (PeproTech), pleiotropic cytokine” the “effect on productive EHDV-TAU-LNCaP infection” value (LNCaP-JAK1 cells; LNCaP-JAK1, IL-6) was “reduce productive EHDV-TAU-LNCaP infection”.

With `O=C(O)[C@H](Cc1c[nH]c2ccccc12)N1C(=O)c2ccccc2C1=O` [RG108, N-phthalyl-L-tryptophan] the “protection from EHDV-TAU-LNCaP-induced cell death” value (LNCaP cells; RG108 alone) was “partial protection” and the “effect on virus-induced cell death” value (LNCaP cells; combination of IFN and RG108, relative to untreated infected cells) was “reduced it to half”.

With `COC(=O)CC(NC(=O)C(NC(=O)c1ccc2ccccc2n1)C(C)C)C(=O)COc1c(F)cccc1F` (stereo not shown) [Q-VD-OPh, Quinolyl-valyl-O-methylaspartyl-[-2,6-difluorophenoxy]-methyl ketone, reference compound] the “effect of inhibitor on EHDV-TAU-LNCaP-induced cell death” value (LNCaP cells) was “partial reduction” and the “effect on NS3 expression in infected, IL-6-treated cells” value (LNCaP-JAK1 cells; LNCaP-JAK1, Q-VD-OPh 20 μM, IL-6 5 ng/ml) was “failed to rescue NS3 expression”.

In the case of `Nc1ncn([C@H]2C[C@H](O)[C@@H](CO)O2)c(=O)n1` [5AC, 5-Aza-2′-deoxycytidine], the “effect on infection / virus-induced death” value (LNCaP cells; combination of 5AC and IFNα, compared to IFNα or 5AC alone) is reported as “reduced infection to a greater and significant degree”.

For `CN1C(=O)C(Cc2c[nH]c3ccccc23)NC1=S` (stereo not shown) [Necrostatin-1], the “effect of inhibitor on EHDV-TAU-LNCaP-induced cell death” value (LNCaP cells) was “partial reduction”.

With IFNα the “effect on EHDV-TAU-LNCaP-induced cell death” value (LNCaP cells; IFN alone) was “minimal reduction” and the “effect of treatment on NS3 expression in EHDV-TAU-LNCaP-infected cells” value (LNCaP-JAK1 cells) was “abolished NS3 expression”.

B1: IFNγ: human IFNγ (PeproTech) (protein, UniProt P01579 24-161, looked up)
Interferon gamma: QDPYVKEAENLKKYFNAGHSDVADNGTLFLGILKNWKEESDRKIMQSQIVSFYFKLFKNFKDDQSIQKSVETIKEDMNVKFFNSNKKKRDDFEKLTNYSVTDLNVQRKAIHELIQVMAELSPAAKTGKRKRSQMLFRG
B1 was tested, and the “effect of treatment on NS3 expression in EHDV-TAU-LNCaP-infected cells” value (LNCaP-JAK1 cells) was “abrogated NS3 production”.
